Our source for the Ki values is ChEMBL document CHEMBL3822417, “Predictive proteochemometric models for kinases derived from 3D protein field-based descriptors” (Medchemcomm, 2016).

Experiment [1] deals with Serine/threonine-protein kinase 10 (Homo sapiens, UniProt O94804). As to the kind of experiment: Inhibition of STK10 (unknown origin).
The target in experiment [2] is RAC-beta serine/threonine-protein kinase (Homo sapiens, UniProt P31751). As to the kind of experiment: Inhibition of AKT2 (unknown origin).
Sequence of RAC-beta serine/threonine-protein kinase (P31751 whole entry): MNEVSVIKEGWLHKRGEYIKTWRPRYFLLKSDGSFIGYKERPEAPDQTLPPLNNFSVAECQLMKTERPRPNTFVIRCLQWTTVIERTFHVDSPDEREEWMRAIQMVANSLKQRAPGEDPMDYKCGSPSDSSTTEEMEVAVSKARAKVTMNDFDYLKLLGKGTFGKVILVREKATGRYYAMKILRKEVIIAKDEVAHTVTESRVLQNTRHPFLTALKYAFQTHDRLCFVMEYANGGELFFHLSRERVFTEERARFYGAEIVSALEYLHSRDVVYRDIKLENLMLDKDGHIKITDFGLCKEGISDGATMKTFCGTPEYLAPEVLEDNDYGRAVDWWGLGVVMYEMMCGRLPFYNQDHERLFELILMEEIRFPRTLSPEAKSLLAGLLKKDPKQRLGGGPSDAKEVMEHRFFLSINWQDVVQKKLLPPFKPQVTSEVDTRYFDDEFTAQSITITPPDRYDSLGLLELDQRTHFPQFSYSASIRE

Broadly, the Ki is the dissociation constant of the complex between target and ligand, obtained from inhibition or displacement. Low readings indicate a stronger hold on the target, high ones a looser hold on the target.

Sequence of Serine/threonine-protein kinase 10 (O94804 whole entry): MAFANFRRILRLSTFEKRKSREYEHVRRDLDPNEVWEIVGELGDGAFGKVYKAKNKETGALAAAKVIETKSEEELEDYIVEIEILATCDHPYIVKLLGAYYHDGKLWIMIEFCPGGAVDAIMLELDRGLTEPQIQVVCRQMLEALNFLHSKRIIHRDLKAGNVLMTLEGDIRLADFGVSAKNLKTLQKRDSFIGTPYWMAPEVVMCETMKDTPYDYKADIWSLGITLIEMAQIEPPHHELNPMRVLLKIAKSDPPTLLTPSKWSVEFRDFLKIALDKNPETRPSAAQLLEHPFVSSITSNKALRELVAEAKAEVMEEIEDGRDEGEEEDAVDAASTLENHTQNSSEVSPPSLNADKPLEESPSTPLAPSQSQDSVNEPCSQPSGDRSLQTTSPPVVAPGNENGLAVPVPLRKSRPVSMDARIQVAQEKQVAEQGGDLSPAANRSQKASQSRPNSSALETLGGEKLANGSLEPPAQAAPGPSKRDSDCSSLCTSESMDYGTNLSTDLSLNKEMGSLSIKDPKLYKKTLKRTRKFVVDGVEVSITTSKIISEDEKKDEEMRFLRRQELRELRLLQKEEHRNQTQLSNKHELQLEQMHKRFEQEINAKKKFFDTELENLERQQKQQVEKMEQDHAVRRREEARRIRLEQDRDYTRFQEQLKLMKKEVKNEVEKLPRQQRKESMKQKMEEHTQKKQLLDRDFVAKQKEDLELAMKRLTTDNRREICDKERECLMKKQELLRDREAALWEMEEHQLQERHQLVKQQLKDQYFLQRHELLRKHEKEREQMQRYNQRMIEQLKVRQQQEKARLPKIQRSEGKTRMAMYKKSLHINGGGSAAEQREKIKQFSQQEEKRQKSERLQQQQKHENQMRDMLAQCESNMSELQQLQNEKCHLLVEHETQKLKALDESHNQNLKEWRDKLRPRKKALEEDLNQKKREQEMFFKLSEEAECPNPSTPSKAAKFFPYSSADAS

Regarding `Oc1ccc(-c2nc(-c3ccncc3)c(-c3ccc(F)cc3)[nH]2)cc1` [SB-202190], the Ki in experiment [1] is > 10 µM.

Regarding `COc1cc(N2CCC(N3CCN(C)CC3)CC2)ccc1Nc1ncc(Cl)c(Nc2ccccc2S(=O)(=O)C(C)C)n1` [TAE-684], the Ki in experiment [2] was > 10 µM.
